Experimental data from PubChem BioAssay AID1918996 (Molecular Pharmacology Branch, DTP, NCI, 2023).
pIC50: −log10 of the molar value. Several values for one entry are separate records, joined by “and”; a condition that tells them apart may be missing. Equal entries are not always repeated. Each block holds one compound with its values, some of them ahead of it.

System: 349418-098-R-PDC complex spheroid growth
Assay: Anticancer human tumor 349418-098-R-PDC patient-derived lung adenocarcinoma cell line growth inhibition [AhR]
Details: for viability, T/C: stronger effect = lower value
Summary of the method: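 Spheroids combined tumor cells with HUVEC endothelial cells and human MSCs as stroma. AhR antagonists were paired with standard or investigational drugs, each dosed in half-log steps down from near clinical Cmax, or from 10 microM where Cmax was unknown.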

[1] = curve of first compound, second compound 0.1 µM
[2] = curve of first compound, second compound 0.316 µM
[3] = curve of first compound, second compound 1 µM
[4] = curve of first compound, second compound 3.16 µM
[5] = curve of first compound, second compound 10 µM
[6] = second compound 0.1 µM, first compound 0.0316 µM
[7] = second compound 0.1 µM, first compound 0.1 µM
[8] = second compound 0.1 µM, first compound 0.316 µM
[9] = second compound 0.1 µM, first compound 1 µM
[10] = second compound 0.1 µM, first compound 3.16 µM
[11] = second compound 0.1 µM, first compound 10 µM
[12] = second compound 0.316 µM, first compound 0.0316 µM
[13] = second compound 0.316 µM, first compound 0.1 µM
[14] = second compound 0.316 µM, first compound 0.316 µM
[15] = second compound 0.316 µM, first compound 1 µM
[16] = second compound 0.316 µM, first compound 3.16 µM
[17] = second compound 0.316 µM, first compound 10 µM
[18] = second compound 1 µM, first compound 0.0316 µM
[19] = second compound 1 µM, first compound 0.1 µM
[20] = second compound 1 µM, first compound 0.316 µM
[21] = second compound 1 µM, first compound 1 µM
[22] = second compound 1 µM, first compound 3.16 µM
[23] = second compound 1 µM, first compound 10 µM
[24] = second compound 3.16 µM, first compound 0.0316 µM
[25] = second compound 3.16 µM, first compound 0.1 µM
[26] = second compound 3.16 µM, first compound 0.316 µM
[27] = second compound 3.16 µM, first compound 1 µM
[28] = second compound 3.16 µM, first compound 3.16 µM
[29] = second compound 3.16 µM, first compound 10 µM
[30] = second compound 10 µM, first compound 0.0316 µM
[31] = second compound 10 µM, first compound 0.1 µM
[32] = second compound 10 µM, first compound 0.316 µM
[33] = second compound 10 µM, first compound 1 µM
[34] = second compound 10 µM, first compound 3.16 µM
[35] = second compound 10 µM, first compound 10 µM
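Note: spheroids exposed to agents for seven days before luminescence viability read.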
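Throughout, for viability, T/C: spheroids also contain HUVEC endothelial cells and human MSC stroma.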

pIC50 [1]: 7.03
pIC50 [2]: 7.32
pIC50 [3]: 6.97
pIC50 [4]: 7.33
pIC50 [5]: > 7.50
Compound: COc1cc(Nc2ncc3c(n2)-c2ccc(Cl)cc2C(c2c(F)cccc2OC)=NC3)ccc1C(=O)O + CC(CO)NC(=O)c1cc(-c2ccc(Cl)cc2)nn(-c2cnn(C)c2)c1=O
viability, T/C [6]: 66.3%
viability, T/C [7]: 49.3%
viability, T/C [8]: 33.4%
viability, T/C [9]: 37.4%
viability, T/C [10]: 31.7%
viability, T/C [11]: 23.1%
viability, T/C [12]: 58.7%
viability, T/C [13]: 33.7%
viability, T/C [14]: 29.5%
viability, T/C [15]: 29.2%
viability, T/C [16]: 28.1%
viability, T/C [17]: 26%
viability, T/C [18]: 71.9%
viability, T/C [19]: 51.3%
viability, T/C [20]: 27.8%
viability, T/C [21]: 31.3%
viability, T/C [22]: 29.5%
viability, T/C [23]: 32%
viability, T/C [24]: 55.2%
viability, T/C [25]: 41.3%
viability, T/C [26]: 32.8%
viability, T/C [27]: 28%
viability, T/C [28]: 28.8%
viability, T/C [29]: 29.7%
viability, T/C [30]: 38.4%
viability, T/C [31]: 23.4%
viability, T/C [32]: 32%
viability, T/C [33]: 24.8%
viability, T/C [34]: 20.9%
viability, T/C [35]: 24.2%

pIC50 [1]: 7.06
pIC50 [2]: 7.49
pIC50 [3]: 7.34
pIC50 [4]: 7.60
pIC50 [5]: 7.70
Compound: Nc1ncn(C2CC(O)C(CO)S2)c(=O)n1 (configuration not stated) + CC(CO)NC(=O)c1cc(-c2ccc(Cl)cc2)nn(-c2cnn(C)c2)c1=O
viability, T/C (second compound 0.1 µM, first compound 0.000949 µM): 86.5%
viability, T/C (second compound 0.1 µM, first compound 0.003 µM): 85.5%
viability, T/C (second compound 0.1 µM, first compound 0.00949 µM): 56.2%
viability, T/C (second compound 0.1 µM, first compound 0.03 µM): 62.2%
viability, T/C (second compound 0.1 µM, first compound 0.0949 µM): 60.8%
viability, T/C (second compound 0.1 µM, first compound 0.3 µM): 31.9%
viability, T/C (second compound 0.316 µM, first compound 0.000949 µM): 72.6%
viability, T/C (second compound 0.316 µM, first compound 0.003 µM): 118%
viability, T/C (second compound 0.316 µM, first compound 0.00949 µM): 68.8%
viability, T/C (second compound 0.316 µM, first compound 0.03 µM): 52.6%
viability, T/C (second compound 0.316 µM, first compound 0.0949 µM): 47.8%
viability, T/C (second compound 0.316 µM, first compound 0.3 µM): 27.4%
viability, T/C (second compound 1 µM, first compound 0.000949 µM): 96.4%
viability, T/C (second compound 1 µM, first compound 0.003 µM): 68.9%
viability, T/C (second compound 1 µM, first compound 0.00949 µM): 90.5%
viability, T/C (second compound 1 µM, first compound 0.03 µM): 53.7%
viability, T/C (second compound 1 µM, first compound 0.0949 µM): 37.8%
viability, T/C (second compound 1 µM, first compound 0.3 µM): 21.4%
viability, T/C (second compound 3.16 µM, first compound 0.000949 µM): 86.1%
viability, T/C (second compound 3.16 µM, first compound 0.003 µM): 58%
viability, T/C (second compound 3.16 µM, first compound 0.00949 µM): 66.5%
viability, T/C (second compound 3.16 µM, first compound 0.03 µM): 47%
viability, T/C (second compound 3.16 µM, first compound 0.0949 µM): 39.9%
viability, T/C (second compound 3.16 µM, first compound 0.3 µM): 24.2%
viability, T/C (second compound 10 µM, first compound 0.000949 µM): 53.5%
viability, T/C (second compound 10 µM, first compound 0.003 µM): 71.8%
viability, T/C (second compound 10 µM, first compound 0.00949 µM): 60%
viability, T/C (second compound 10 µM, first compound 0.03 µM): 43.1%
viability, T/C (second compound 10 µM, first compound 0.0949 µM): 33.3%
viability, T/C (second compound 10 µM, first compound 0.3 µM): 24.5%

pIC50 (curve of compound): 6.32 and 6.25 and 6.61
Compound: COc1cc(C2c3cc4c(cc3C(OC3OC5COC(C)OC5C(O)C3O)C3COC(=O)C23)OCO4)cc(OC)c1O (configuration not stated)
viability, T/C (compound 0.0316 µM): 99.4% and 112% and 89.4%
viability, T/C (compound 0.1 µM): 99.9% and 91.1% and 91.7%
viability, T/C (compound 0.316 µM): 64.6% and 71% and 38.2%
viability, T/C (compound 1 µM): 22.5% and 31.2% and 21.6%
viability, T/C (compound 3.16 µM): 11.2% and 15.4% and 15.3%
viability, T/C (compound 10 µM): 5.4% and 11.7% and 12.5%

pIC50 [1]: 6.32
pIC50 [2]: 6.42
pIC50 [3]: 6.37
pIC50 [4]: > 7.50
pIC50 [5]: > 7.50
Compound: COc1cc(C2c3cc4c(cc3C(OC3OC5COC(C)OC5C(O)C3O)C3COC(=O)C23)OCO4)cc(OC)c1O (configuration not stated) + Cc1cncc(-c2nc(NCCc3c[nH]c4ccccc34)c3ncn(C(C)C)c3n2)c1
viability, T/C [6]: 97.8%
viability, T/C [7]: 99%
viability, T/C [8]: 62.4%
viability, T/C [9]: 24.9%
viability, T/C [10]: 9.98%
viability, T/C [11]: 4.8%
viability, T/C [12]: 103%
viability, T/C [13]: 86.5%
viability, T/C [14]: 58.3%
viability, T/C [15]: 19.1%
viability, T/C [16]: 8.45%
viability, T/C [17]: 5.08%
viability, T/C [18]: 93.3%
viability, T/C [19]: 90.9%
viability, T/C [20]: 59.6%
viability, T/C [21]: 20.9%
viability, T/C [22]: 9.01%
viability, T/C [23]: 6.23%
viability, T/C [24]: 24%
viability, T/C [25]: 19.2%
viability, T/C [26]: 14.8%
viability, T/C [27]: 10.2%
viability, T/C [28]: 7.3%
viability, T/C [29]: 4.57%
viability, T/C [30]: 1.7%
viability, T/C [31]: 1.71%
viability, T/C [32]: 1.45%
viability, T/C [33]: 1.18%
viability, T/C [34]: 1.04%
viability, T/C [35]: 1.29%

pIC50 [1]: < 7.00
pIC50 [2]: < 7.00
pIC50 [3]: < 7.00
pIC50 [4]: 7.84
pIC50 [5]: 8.38
Compound: Cn1ncnc1C1c2n[nH]c(=O)c3cc(F)cc(c23)NC1c1ccc(F)cc1 (configuration not stated) + CC(CO)NC(=O)c1cc(-c2ccc(Cl)cc2)nn(-c2cnn(C)c2)c1=O
viability, T/C (second compound 0.1 µM, first compound 0.000316 µM): 81.4%
viability, T/C (second compound 0.1 µM, first compound 0.001 µM): 85.1%
viability, T/C (second compound 0.1 µM, first compound 0.00316 µM): 94%
viability, T/C (second compound 0.1 µM, first compound 0.01 µM): 96.2%
viability, T/C [6]: 84.9%
viability, T/C [7]: 87.3%
viability, T/C (second compound 0.316 µM, first compound 0.000316 µM): 71.8%
viability, T/C (second compound 0.316 µM, first compound 0.001 µM): 84.4%
viability, T/C (second compound 0.316 µM, first compound 0.00316 µM): 60.6%
viability, T/C (second compound 0.316 µM, first compound 0.01 µM): 76.3%
viability, T/C [12]: 48%
viability, T/C [13]: 60.1%
viability, T/C (second compound 1 µM, first compound 0.000316 µM): 78.1%
viability, T/C (second compound 1 µM, first compound 0.001 µM): 106%
viability, T/C (second compound 1 µM, first compound 0.00316 µM): 83.9%
viability, T/C (second compound 1 µM, first compound 0.01 µM): 52.2%
viability, T/C [18]: 51.2%
viability, T/C [19]: 56.8%
viability, T/C (second compound 3.16 µM, first compound 0.000316 µM): 83.1%
viability, T/C (second compound 3.16 µM, first compound 0.001 µM): 68.9%
viability, T/C (second compound 3.16 µM, first compound 0.00316 µM): 55.7%
viability, T/C (second compound 3.16 µM, first compound 0.01 µM): 61%
viability, T/C [24]: 37.6%
viability, T/C [25]: 45.3%
viability, T/C (second compound 10 µM, first compound 0.000316 µM): 39.9%
viability, T/C (second compound 10 µM, first compound 0.001 µM): 64.7%
viability, T/C (second compound 10 µM, first compound 0.00316 µM): 59.8%
viability, T/C (second compound 10 µM, first compound 0.01 µM): 35.2%
viability, T/C [30]: 32.4%
viability, T/C [31]: 39.2%

pIC50 [1]: > 7.50
pIC50 [2]: > 7.50
pIC50 [3]: > 7.50
pIC50 [4]: > 7.50
pIC50 [5]: > 7.50
Compound: Nc1ccn(C2OC(CO)C(O)C2(F)F)c(=O)n1 (configuration not stated) + Cc1ccccc1N=Nc1ccc(NC(=O)c2ccnn2C)c(C)c1
viability, T/C [6]: 15.1%
viability, T/C [7]: 14.6%
viability, T/C [8]: 13.6%
viability, T/C [9]: 12.1%
viability, T/C [10]: 11.3%
viability, T/C [11]: 8.74%
viability, T/C [12]: 15.9%
viability, T/C [13]: 13.5%
viability, T/C [14]: 14.6%
viability, T/C [15]: 13.1%
viability, T/C [16]: 11.2%
viability, T/C [17]: 9.73%
viability, T/C [18]: 15.7%
viability, T/C [19]: 14.8%
viability, T/C [20]: 15.3%
viability, T/C [21]: 11.7%
viability, T/C [22]: 14.3%
viability, T/C [23]: 11.4%
viability, T/C [24]: 14.9%
viability, T/C [25]: 16.4%
viability, T/C [26]: 13.1%
viability, T/C [27]: 12.7%
viability, T/C [28]: 13%
viability, T/C [29]: 10.1%
viability, T/C [30]: 17.9%
viability, T/C [31]: 17.4%
viability, T/C [32]: 16.7%
viability, T/C [33]: 14.1%
viability, T/C [34]: 13.4%
viability, T/C [35]: 12.2%
